Assay results reported in ChEMBL document CHEMBL1158451, “Generation of ligand-based pharmacophore model and virtual screening for identification of novel tubulin inhibitors with potent anticancer activity” (J Med Chem, 2009).
Calls of active or inactive are those of the source. The calls are words filed in the database; no cut-off is given here.

Key:
[1] = system: KB; assay: Growth inhibition of human KB cells by methylene blue assay; assay type: functional, cell-based
[2] = (§1) Inhibition of bovine brain tubulin polymerization after 30 mins by […] assay; design: species or system Bos taurus
[3] = species on record: Bos taurus; assay: as §1
[4] = system: SF-268; assay: Antiproliferative activity against human SF268 cells after three generation of incubation by MTS assay; assay type: functional, cell-based
[5] = system: KB; assay: Cell cycle arrest in human KB cells assessed as accumulation at G2/M phase after 24 hrs using propidium iodide staining by flow cytometry; assay type: functional, cell-based
[6] = system: NCI-H460; assay: Antiproliferative activity against human NCI-H460 cells after incubation for three generations by MTS assay; assay type: functional, cell-based
[7] = system: KB; assay: Cell cycle arrest in human KB cells assessed as accumulation at sub-G1 phase at 400 nM using propidium iodide staining by flow cytometry; assay type: functional, cell-based; settings: TDE = time-dependent effect
[8] = system: HCT-116; assay: Antiproliferative activity against human HCT116 xenografted tumor histoculture at 100 uM after 48 hrs by hematoxylin staining; assay type: functional, cell-based
[9] = system: HCT-116; assay: Antiproliferative activity against human HCT116 xenografted tumor histoculture at 1 uM after 48 hrs by hematoxylin staining; assay type: functional, cell-based
[10] = system: KB; assay: Antiproliferative activity against human KB cells after incubation for three generations by MTS assay; assay type: functional, cell-based
[11] = system: KB; assay: Cell cycle arrest in human KB cells assessed as loss of accumulation at G0/G1 phase after 24 hrs using propidium iodide staining by flow cytometry; assay type: functional, cell-based
[12] = system: HCT-116; assay: Antiproliferative activity against human HCT116 xenografted tumor histoculture at 10uM after 48 hrs by hematoxylin staining; assay type: functional, cell-based
[13] = system: KB; assay: Cell cycle arrest in human KB cells assessed as accumulation at G2/M phase at 400 nM after 24 hrs using propidium iodide staining by flow cytometry; assay type: functional
[14] = system: KB; assay: Cell cycle arrest in human KB cells assessed as accumulation at G2/M phase at 800 nM after 24 hrs using propidium iodide staining by flow cytometry; assay type: functional
[15] = system: MCF7; assay: Antiproliferative activity against human MCF7 cells after incubation for three generations by MTS assay; assay type: functional, cell-based
[16] = system: KB; assay: Cell cycle arrest in human KB cells assessed as accumulation at G2/M phase at 400 nM using propidium iodide staining by flow cytometry; assay type: functional, cell-based; settings: TDE = time-dependent effect
[17] = system: KB; assay: Cell cycle arrest in human KB cells assessed as loss of accumulation at G0/G1 phase at 400 nM using propidium iodide staining by flow cytometry; assay type: functional, cell-based; settings: TDE = time-dependent effect
[18] = Inhibition of bovine cerebral cortex tubulin polymerization up to 30 mins; design: species or system Bos taurus
[19] = Inhibition of tubulin polymerization

| Structure (SMILES) | IC50 [1] [µM] | other results |
| --- | --- | --- |
| CCOC(=O)Cc1[nH]c2cc(OC)ccc2c1C(=O)c1cc(OC)c(OC)c(OC)c1 | 0.0039 | – |
| CCOC(=O)n1cc(C(=O)c2cc(OC)c(OC)c(OC)c2)c2ccc(OC)cc21 | 0.073 | – |
| CCCCCn1cc(C(=O)c2cc(OC)c(OC)c(OC)c2)c2ccc(OC)cc21 | 0.35 | – |
| COC(=O)c1[nH]c2cc(OC)ccc2c1C(=O)c1cc(OC)c(OC)c(OC)c1 | 0.0055 | – |
| COc1ccc2c(C(=O)c3cc(OC)c(OC)c(OC)c3)cn(CCN3CCN(C)CC3)c2c1 | 4.1 | – |
| CCCCc1[nH]c2cc(OC)ccc2c1C(=O)c1cc(OC)c(OC)c(OC)c1 | 0.0143 | – |
| COc1ccc2c(C(=O)c3cc(OC)c(OC)c(OC)c3)cn(CCCCCCO)c2c1 | 0.07 | – |
| CCCCn1c(C)c(C(=O)c2cc(OC)c(OC)c(OC)c2)c2ccc(OC)cc21 | 0.346 | – |
| COc1ccc2c(C(=O)c3cc(OC)c(OC)c(OC)c3)cn(CCN(C)C)c2c1 | 0.2 | – |
| COc1ccc2c(C(=O)c3cc(OC)c(OC)c(OC)c3)c(C)n(CCN3CCCCC3)c2c1 | 0.222 | – |
| COc1ccc2c(C(=O)c3cc(OC)c(OC)c(OC)c3)c(C)n(CCN(C)C)c2c1 | 0.332 | – |
| COc1ccc2c(C(=O)c3cc(OC)c(OC)c(OC)c3)cn(CCN3CCCCCC3)c2c1 | 0.28 | – |
| CCCc1[nH]c2cc(OC)ccc2c1C(=O)c1cc(OC)c(OC)c(OC)c1 | 0.011 | – |
| COc1ccc2c(C(=O)c3cc(OC)c(OC)c(OC)c3)cn(CCN3CCC[C@@H]3CO)c2c1 | 0.5 | – |
| COc1ccc2c(C)cc(N/N=C/c3ccccc3O)nc2c1 | 2 | – |
| Cc1ccc(C)c(Nc2cc(C)nc(-c3ccccc3O)n2)c1 | 3 | – |
| COc1ccc2c(C(=O)c3cc(OC)c(OC)c(OC)c3)c(CCCO)[nH]c2c1 | 0.092 | – |
| CCCCCCc1[nH]c2cc(OC)ccc2c1C(=O)c1cc(OC)c(OC)c(OC)c1 | 0.0378 | – |
| COc1ccc2c(C(=O)c3cc(OC)c(OC)c(OC)c3)cn(CCN3CCCCC3)c2c1 | 0.093 | – |
| COc1ccc2c(C(=O)c3cc(OC)c(OC)c(OC)c3)cn(Cc3ccncc3)c2c1 | 0.21 | – |
| COc1ccc(-n2cc(C(=O)c3cc(OC)c(OC)c(OC)c3)c3ccc(OC)cc32)cc1 | 0.207 | – |
| COc1ccc2c(C(=O)c3cc(OC)c(OC)c(OC)c3)cn(S(=O)(=O)c3ccccc3)c2c1 | 0.2 | – |
| COc1ccc2c(C(=O)c3cc(OC)c(OC)c(OC)c3)cn(CCCN(C)C)c2c1 | 1.7 | – |
| COc1ccc2c(C(=O)c3cc(OC)c(OC)c(OC)c3)cn(CCO)c2c1 | 0.055 | – |
| CCn1cc(C(=O)c2cc(OC)c(OC)c(OC)c2)c2ccc(OC)cc21 | 0.064 | – |

| Structure (SMILES) | IC50 [1] [µM] | other results |
| --- | --- | --- |
| COc1ccc2c(C(=O)c3cc(OC)c(OC)c(OC)c3)cn(CCCCO)c2c1 | 0.075 | – |
| COc1ccc2c(C(=O)c3cc(OC)c(OC)c(OC)c3)cn(CCCCN(C)C)c2c1 | 6 | – |
| COc1ccc2c(C(=O)c3cc(OC)c(OC)c(OC)c3)cn(C(=O)N3CCOCC3)c2c1 | 0.237 | – |
| COc1ccc2c(C(=O)c3cc(OC)c(OC)c(OC)c3)cn(CCN3CCN(c4ccccn4)CC3)c2c1 | 0.292 | – |
| Cc1ccc(CCC(=O)Nc2ncc(Cc3cc(Cl)ccc3Cl)s2)o1 | 0.187 | IC50 [2]: 4.4 µM; Activity [3]: Dose-dependent effect; IC50 [4]: 0.319 µM; Activity [5]: Dose-dependent effect; IC50 [6]: 0.285 µM; Activity [7]: tde; Activity [8]: Active; Activity [9]: Active; IC50 [10]: 0.187 µM; Activity [11]: Dose-dependent effect; Activity [12]: Active; Activity [13]: 55.6%; Activity [14]: 70.3%; IC50 [15]: 0.236 µM; Activity [16]: tde; Activity [17]: tde |
| CCN(CC)CCn1c(C)c(C(=O)c2cc(OC)c(OC)c(OC)c2)c2ccc(OC)cc21 | 0.288 | – |
| COc1ccc2c(C(=O)c3cc(OC)c(OC)c(OC)c3)c(CCCCCO)[nH]c2c1 | 0.0573 | – |
| C1=NNCO1 [OXADIAZOLINE] | – | IC50 [18]: 4.5 µM |
| COc1ccc2c(C(=O)c3cc(OC)c(OC)c(OC)c3)cn(CCCCCCN(C)C)c2c1 | 2.1 | – |
| COc1cc2c(c(N)c1OC)C(=O)/C(=C\c1cc(C)c(O)c(C)c1)C2 [INDANOCINE] | – | IC50 [19]: 1.7 µM |
| CCCCCc1[nH]c2cc(OC)ccc2c1C(=O)c1cc(OC)c(OC)c(OC)c1 | 0.038 | – |
| COc1ccc2c(C(=O)c3cc(OC)c(OC)c(OC)c3)cn(C)c2c1 | 0.034 | – |
| CCN(CC)CCn1cc(C(=O)c2cc(OC)c(OC)c(OC)c2)c2ccc(OC)cc21 | 1.8 | – |
| COc1ccc2ccccc2c1-c1cc(C(=O)N/N=C/c2cccs2)[nH]n1 | 5.7 | – |
| COc1ccc2c(C(=O)c3cc(OC)c(OC)c(OC)c3)c(CCCCO)[nH]c2c1 | 0.0066 | – |
| COc1ccc2c(C(=O)c3cc(OC)c(OC)c(OC)c3)c(CN(C)C)[nH]c2c1 | 0.0498 | – |
| CCCn1cc(C(=O)c2cc(OC)c(OC)c(OC)c2)c2ccc(OC)cc21 | 0.18 | – |
| O=C(/C=C/c1ccccc1)c1ccccc1 [CHALCONE] | – | IC50 [19]: 10 µM |
| COc1ccc2c(C(=O)c3cc(OC)c(OC)c(OC)c3)cn(C(C)C)c2c1 | 0.287 | – |
| COc1ccc2c(C(=O)c3cc(OC)c(OC)c(OC)c3)c(CO)[nH]c2c1 | 0.0012 | – |
| COc1ccc2c(C(=O)c3cc(OC)c(OC)c(OC)c3)cn(CCN3CCCC3)c2c1 | 0.406 | – |
| COc1ccc2c(C(=O)c3cc(OC)c(OC)c(OC)c3)cn(CCCCCN(C)C)c2c1 | 1.8 | – |
| COc1ccc2c(C(=O)c3cc(OC)c(OC)c(OC)c3)cn(-c3ccc([N+](=O)[O-])cc3)c2c1 | 0.29 | – |
| CCCCCCn1cc(C(=O)c2cc(OC)c(OC)c(OC)c2)c2ccc(OC)cc21 | 0.455 | – |
